The numbers were not newly measured in patent US9211338B2, “Composition and method for treating HPV” (Universite Libre de Bruxelles, priority 2011, dated 2015), which cites them from elsewhere.

Read-outs that look alike come from different tables or passages of the source.

The test system of one data set is HPV-positive cells. The conditions noted are these: in vitro.

Consider `Nc1ccn(C[C@@H](CO)OCP(=O)(O)O)c(=O)n1` [cidofovir], for which the clinical outcome in the data set with HPV (intravenous (systemic), disseminated papillomatosis) is “stabilization of disseminated papillomatosis”; with HPV (local intratumor injections, patients with papillomatous lesions) it was “complete regression of the tumor”. Besides, in the data set with HPV-positive cells, the “inhibition of cell proliferation” value is “concentration- and time-dependent inhibition of cell proliferation”.
